According to PubChem BioAssay AID2060622 (Molecular Pharmacology Branch, DTP, NCI, 2025):

Tested on: 242566-281-R-J2-PDC complex spheroid viability
Test: Anticancer human tumor 242566-281-R-J2-PDC patient-derived pancreatic carcinoma cell line growth inhibition [CLK]
Details: for IC50: curve of first compound; for viability, T/C: stronger effect = lower value
How it was run: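 Patient-derived tumor cells grown as complex spheroids with HUVEC endothelial cells and mesenchymal stem cells, treated with drug combinations. Concentrations descend in half-log steps from near clinical Cmax, or from 10 microM if Cmax unknown.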

[1] = second compound 0.0316 µM, first compound 0.0316 µM
[2] = second compound 0.0316 µM, first compound 0.1 µM
[3] = second compound 0.0316 µM, first compound 0.316 µM
[4] = second compound 0.0316 µM, first compound 1 µM
[5] = second compound 0.0316 µM, first compound 3.16 µM
[6] = second compound 0.0316 µM, first compound 10 µM
[7] = second compound 0.1 µM, first compound 0.0316 µM
[8] = second compound 0.1 µM, first compound 0.1 µM
[9] = second compound 0.1 µM, first compound 0.316 µM
[10] = second compound 0.1 µM, first compound 1 µM
[11] = second compound 0.1 µM, first compound 3.16 µM
[12] = second compound 0.1 µM, first compound 10 µM
[13] = second compound 0.316 µM, first compound 0.0316 µM
[14] = second compound 0.316 µM, first compound 0.1 µM
[15] = second compound 0.316 µM, first compound 0.316 µM
[16] = second compound 0.316 µM, first compound 1 µM
[17] = second compound 0.316 µM, first compound 3.16 µM
[18] = second compound 0.316 µM, first compound 10 µM
[19] = second compound 1 µM, first compound 0.0316 µM
[20] = second compound 1 µM, first compound 0.1 µM
[21] = second compound 1 µM, first compound 0.316 µM
[22] = second compound 1 µM, first compound 1 µM
[23] = second compound 1 µM, first compound 3.16 µM
[24] = second compound 1 µM, first compound 10 µM
[25] = second compound 3.16 µM, first compound 0.0316 µM
[26] = second compound 3.16 µM, first compound 0.1 µM
[27] = second compound 3.16 µM, first compound 0.316 µM
[28] = second compound 3.16 µM, first compound 1 µM
[29] = second compound 3.16 µM, first compound 3.16 µM
[30] = second compound 3.16 µM, first compound 10 µM
[31] = second compound 10 µM, first compound 0.0316 µM
[32] = second compound 10 µM, first compound 0.1 µM
[33] = second compound 10 µM, first compound 0.316 µM
[34] = second compound 10 µM, first compound 1 µM
[35] = second compound 10 µM, first compound 3.16 µM
[36] = second compound 10 µM, first compound 10 µM
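Also: spheroids exposed to compounds for 7 days before readout.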
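For viability, T/C in this document: 100% = DMSO vehicle control wells.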

Question: For `CC1COCCN1c1cc(C2(S(C)(=N)=O)CC2)nc(-c2ccnc3[nH]ccc23)n1` (stereo unspecified) + CNC(=O)c1ccc(Nc2nc(OC3CCCC3)c3c(-c4ccc5nc(C)oc5c4)c[nH]c3n2)c(OC)c1, which IC50 (second compound 0.0316 µM) is on record?
Answer: > 10 µM

Question: And the IC50 (second compound 0.1 µM)?
Answer: > 10 µM

Question: And the IC50 (second compound 0.316 µM)?
Answer: 7.16 µM

Question: And the IC50 (second compound 1 µM)?
Answer: 0.763 µM

Question: And the IC50 (second compound 3.16 µM)?
Answer: 0.192 µM

Question: What about the IC50 (second compound 10 µM) of the same compound?
Answer: 0.0613 µM

Question: And the viability, T/C [1]?
Answer: 89%

Question: What about the viability, T/C [2] of the same compound?
Answer: 105%

Question: What about the viability, T/C [3] of the same compound?
Answer: 117%

Question: And the viability, T/C [4]?
Answer: 118%

Question: And the viability, T/C [5]?
Answer: 92.2%

Question: What about the viability, T/C [6] of the same compound?
Answer: 61%

Question: What about the viability, T/C [7] of the same compound?
Answer: 84.7%

Question: And the viability, T/C [8]?
Answer: 90.1%

Question: And the viability, T/C [9]?
Answer: 91.6%

Question: And the viability, T/C [10]?
Answer: 104%

Question: What about the viability, T/C [11] of the same compound?
Answer: 93%

Question: What about the viability, T/C [12] of the same compound?
Answer: 55.6%

Question: What about the viability, T/C [13] of the same compound?
Answer: 76.8%

Question: What about the viability, T/C [14] of the same compound?
Answer: 77.8%

Question: What about the viability, T/C [15] of the same compound?
Answer: 80.3%

Question: And the viability, T/C [16]?
Answer: 70.8%

Question: What about the viability, T/C [17] of the same compound?
Answer: 71%

Question: What about the viability, T/C [18] of the same compound?
Answer: 41.7%

Question: And the viability, T/C [19]?
Answer: 73.9%

Question: What about the viability, T/C [20] of the same compound?
Answer: 69.7%

Question: And the viability, T/C [21]?
Answer: 55.1%

Question: What about the viability, T/C [22] of the same compound?
Answer: 49.4%

Question: And the viability, T/C [23]?
Answer: 34.3%

Question: What about the viability, T/C [24] of the same compound?
Answer: 17.7%

Question: And the viability, T/C [25]?
Answer: 55.2%

Question: And the viability, T/C [26]?
Answer: 55.1%

Question: And the viability, T/C [27]?
Answer: 46.9%

Question: And the viability, T/C [28]?
Answer: 36.2%

Question: What about the viability, T/C [29] of the same compound?
Answer: 24.6%

Question: What about the viability, T/C [30] of the same compound?
Answer: 13.4%

Question: What about the viability, T/C [31] of the same compound?
Answer: 52.5%

Question: And the viability, T/C [32]?
Answer: 47.1%

Question: And the viability, T/C [33]?
Answer: 43.8%

Question: And the viability, T/C [34]?
Answer: 33.2%

Question: And the viability, T/C [35]?
Answer: 22.1%

Question: And the viability, T/C [36]?
Answer: 13.5%

Question: With `C=C(F)C(=O)N1CCN(c2nc(OCC3CCCN3C)nc3c2CCN(c2cccc4cccc(Cl)c24)C3)CC1CC#N` (stereo unspecified) + CNC(=O)c1ccc(Nc2nc(OC3CCCC3)c3c(-c4ccc5nc(C)oc5c4)c[nH]c3n2)c(OC)c1 as the compound, how does the IC50 (second compound 0.0316 µM) read?
Answer: 5.78 µM

Question: And the IC50 (second compound 0.1 µM)?
Answer: 5.43 µM

Question: What about the IC50 (second compound 0.316 µM) of the same compound?
Answer: 4.99 µM

Question: What about the IC50 (second compound 1 µM) of the same compound?
Answer: 3.34 µM

Question: What about the IC50 (second compound 3.16 µM) of the same compound?
Answer: 1.13 µM

Question: And the IC50 (second compound 10 µM)?
Answer: 0.107 µM

Question: And the viability, T/C [1]?
Answer: 95.6%

Question: What about the viability, T/C [2] of the same compound?
Answer: 101%

Question: What about the viability, T/C [3] of the same compound?
Answer: 108%

Question: What about the viability, T/C [4] of the same compound?
Answer: 101%

Question: What about the viability, T/C [5] of the same compound?
Answer: 119%

Question: What about the viability, T/C [6] of the same compound?
Answer: 0.23%

Question: What about the viability, T/C [7] of the same compound?
Answer: 108%

Question: And the viability, T/C [8]?
Answer: 78.5%

Question: What about the viability, T/C [9] of the same compound?
Answer: 83.4%

Question: What about the viability, T/C [10] of the same compound?
Answer: 105%

Question: And the viability, T/C [11]?
Answer: 94.4%

Question: What about the viability, T/C [12] of the same compound?
Answer: 0.19%

Question: What about the viability, T/C [13] of the same compound?
Answer: 82.2%

Question: And the viability, T/C [14]?
Answer: 76.3%

Question: And the viability, T/C [15]?
Answer: 69.7%

Question: And the viability, T/C [16]?
Answer: 88.6%

Question: And the viability, T/C [17]?
Answer: 95%

Question: What about the viability, T/C [18] of the same compound?
Answer: 0.63%

Question: And the viability, T/C [19]?
Answer: 73.3%

Question: And the viability, T/C [20]?
Answer: 64.4%

Question: What about the viability, T/C [21] of the same compound?
Answer: 65.5%

Question: What about the viability, T/C [22] of the same compound?
Answer: 65%

Question: And the viability, T/C [23]?
Answer: 52.7%

Question: And the viability, T/C [24]?
Answer: 0.17%

Question: And the viability, T/C [25]?
Answer: 63.3%

Question: What about the viability, T/C [26] of the same compound?
Answer: 51.1%

Question: And the viability, T/C [27]?
Answer: 50.8%

Question: And the viability, T/C [28]?
Answer: 53.6%

Question: What about the viability, T/C [29] of the same compound?
Answer: 19.6%

Question: What about the viability, T/C [30] of the same compound?
Answer: 0.18%

Question: And the viability, T/C [31]?
Answer: 54.4%

Question: And the viability, T/C [32]?
Answer: 45.2%

Question: What about the viability, T/C [33] of the same compound?
Answer: 50%

Question: And the viability, T/C [34]?
Answer: 43.9%

Question: And the viability, T/C [35]?
Answer: 16%

Question: What about the viability, T/C [36] of the same compound?
Answer: 0.24%

Question: What does the source list for `COc1c(OCCCN2CCOCC2)ccc2c3n(c(=NC(=O)c4cnc(N)nc4)nc12)CCN3` + CN1CCN(c2cc(C(=O)Nc3cc4cc(-c5cnn(C)c5)ccc4cn3)ccn2)CC1?
Answer: IC50 (second compound 0.0316 µM): 0.0255 µM; IC50 (second compound 0.1 µM): 0.0194 µM; IC50 (second compound 0.316 µM): < 0.00316 µM; IC50 (second compound 1 µM): < 0.00316 µM; IC50 (second compound 3.16 µM): < 0.00316 µM; IC50 (second compound 10 µM): < 0.00316 µM; viability, T/C (second compound 0.0316 µM, first compound 0.00316 µM): 91%; viability, T/C (second compound 0.0316 µM, first compound 0.01 µM): 74.5%; viability, T/C [1]: 43.5%; viability, T/C [2]: 22.1%; viability, T/C [3]: 12.3%; viability, T/C [4]: 7.95%; viability, T/C (second compound 0.1 µM, first compound 0.00316 µM): 85.6%; viability, T/C (second compound 0.1 µM, first compound 0.01 µM): 69.5%; viability, T/C [7]: 34.6%; viability, T/C [8]: 18.1%; viability, T/C [9]: 9.35%; viability, T/C [10]: 6.4%; viability, T/C (second compound 0.316 µM, first compound 0.00316 µM): 34%; viability, T/C (second compound 0.316 µM, first compound 0.01 µM): 28.9%; viability, T/C [13]: 17.4%; viability, T/C [14]: 6.56%; viability, T/C [15]: 4.83%; viability, T/C [16]: 5.47%; viability, T/C (second compound 1 µM, first compound 0.00316 µM): 3.43%; viability, T/C (second compound 1 µM, first compound 0.01 µM): 3.63%; viability, T/C [19]: 3.24%; viability, T/C [20]: 2%; viability, T/C [21]: 1.83%; viability, T/C [22]: 1.24%; viability, T/C (second compound 3.16 µM, first compound 0.00316 µM): 6.71%; viability, T/C (second compound 3.16 µM, first compound 0.01 µM): 6.19%; viability, T/C [25]: 5.45%; viability, T/C [26]: 3.96%; viability, T/C [27]: 3.56%; viability, T/C [28]: 2.53%; viability, T/C (second compound 10 µM, first compound 0.00316 µM): 2.33%; viability, T/C (second compound 10 µM, first compound 0.01 µM): 2.32%; viability, T/C [31]: 1.35%; viability, T/C [32]: 1.56%; viability, T/C [33]: 1.19%; viability, T/C [34]: 1.26%
